Laboratory results taken from EP0363275A1, “Low molecular weight vectors specific for sugar receptors, their conjugates and processes for their preparation” (IRE-CELLTARG S.A., priority 1988, dated 1990).
Several values for one entry are separate records, joined by “and”; a condition that tells them apart may be missing. Equal values may be shown once. Entries after “also recorded” stand apart in the source; their conditions may differ.

Experiments:
malaria murine = assay: Therapeutic activity of amino-acid derivatives of primaquine in the murine malaria model; assay type: in vivo
[1] = molecular target: T1, récepteur à asialoglycoprotéine des hépatocytes (Rattus norvegicus, UniProt P02706+P08290); assay: Competition with ¹²⁵I HSA gal for binding to cultured hepatocytes at 4°C; conditions: for affinité pour le récepteur: cultured rat hepatocytes
T1 construct: le récepteur à galactoses présent à la membrane sinusoïdale des hépatocytes; endogenous in cells; host or cells: primary rat hepatocytes, isolated and cultured 16 h
T1 sequence (P02706 1-284): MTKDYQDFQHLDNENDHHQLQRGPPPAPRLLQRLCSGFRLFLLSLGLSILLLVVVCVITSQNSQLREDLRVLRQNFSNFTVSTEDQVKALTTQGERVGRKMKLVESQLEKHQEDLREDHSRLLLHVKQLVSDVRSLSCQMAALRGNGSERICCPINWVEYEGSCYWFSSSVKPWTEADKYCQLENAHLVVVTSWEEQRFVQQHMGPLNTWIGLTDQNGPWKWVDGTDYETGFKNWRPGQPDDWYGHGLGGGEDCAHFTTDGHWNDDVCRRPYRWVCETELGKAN
T1 sequence (P08290 1-301): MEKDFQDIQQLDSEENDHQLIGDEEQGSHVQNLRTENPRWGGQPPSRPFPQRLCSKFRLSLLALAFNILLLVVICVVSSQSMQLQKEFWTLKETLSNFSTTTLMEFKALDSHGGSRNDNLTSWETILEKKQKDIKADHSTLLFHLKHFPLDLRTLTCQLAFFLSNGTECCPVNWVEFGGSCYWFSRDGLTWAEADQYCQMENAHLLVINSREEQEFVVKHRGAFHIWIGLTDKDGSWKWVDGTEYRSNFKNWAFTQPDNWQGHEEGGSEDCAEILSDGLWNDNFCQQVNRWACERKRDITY
Experimental: D'autres caractéristiques et avantages de la présente invention apparaîtront à la lumière des exemples qui vont suivre. • - La figure 1 : Expériences de compétition entre l'HSA gal marqué à l'iode-125 et différentes concentrations molaires en HSA gal non radioactives (●) ou en composés glycosylés (mono O bi □ triantenne ▲ ) non radioactifs. Les cellules mises en culture depuis 16 h. sont incubées à 4°C pendant 4 h. en présence de 1 ml de milieu contenant 50 ng d'¹²⁵I HSA gal et les différentes concentrations en produits non radioactifs. Après l'incubation, les cellules sont lavées et la radioactivité qui leur est associée, mesurée. Les résultats sont exprimés en pourcentage d'¹²⁵I HSA gal qui reste associé aux cellules en fonction du logarithme de la concentration molaire en compétiteur. • - La figure 2 : Expériences de compétiton entre l'HSA gal marqué à l'iode-125 et différentes concentrations molaires en galactoses d'HSA gal ou de composés glycosylés (mono O bi □ et triantenne ▲ )non radioactifs. Les cellules sont traitées comme décrit dans la figure 1 et les résultats sont exprimés en pourcentage d'[…] HSA gal qui reste associé aux cellules en fonction du logarithme de la concentration molaire en galactose du compétiteur. • - La figure 3 : Distribution tissulaire de la triantenne marquée au tritium. Différentes concentrations en triantenne ³H sont administrées par voie intraveineuse à des souris OF₁. Trois minutes après l'injection, les animaux sont sacrifiés. Le sang et les différentes organes sont prélevés, homogénéisés et la radioactivité qui leur est associée, mesurée. Les résultats sont exprimés en pourcentage de la dose totale injectée et représentent la moyenne + déviation standard de 3 expériences. • - La figure 4 : Distribution tissulaire de la triantenne marquée au tritium. Des souris ont reçu par voie i.v. différentes concentrations de triantenne ³H. Les animaux sont sacrifiés 3 min. après l'injection. Le sang et les différents organes sont prélevés, homogénéisés et la radioactivité qui leur est associée, mesurée. Les résultats sont présentés en pourcentage de la dose injectée par gr. de tissu et représentent la moyenne + déviation standard de 3 expériences. • - La figure 5 : Capture hépatique de la triantenne marquée au tritium. Différentes concentrations en triantenne ³H sont injectées par voie i.v. à des souris OF₁. La radioactivité associée au foie est mesurée 3 min. après l'injection. Les valeurs sont exprimées en ng de galactose associés au foie en fonction des ng de galactoses injectés. • - La figure 6 : Distribution tissulaire de la triantenne marquée au tritium (a.) ou au technetium (b.). Une concentration de 100 µg en galactoses de triantenne radioactive est injectée par voie i.v. à des souris OF₁. Les animaux sont sacrifiés 3 min. après l'injection. Le sang et les différents organes sont prélevés, homogénéisés et la radioactivité qui leur est associée, mesurée. Les résultats sont exprimés en pourcentage de la dose totale administrée (case supérieure) ou en pourcentage de la dose totale injectée par gr. de tissu (case inférieure). Ils représentent la moyenne + déviation standard de 3 expériences.
L'étude in vitro des vecteurs hépatotropes de faible poids moléculaire a été effectuée sur des hépatocytes de rats isolés et mis en culture.
L'affinité relative a été déterminée par une expérience de compétition entre le vecteur et une néoglycoprotéine connue pour sa haute affinité pour les récepteurs à galactoses, soit l'albumine humaine
Afin de déterminer si les hépathocytes fixent spécifiquement les différents dérivés glycosylés (monoantenne = 3 galactoses terminaux; biantenne = 6 galactoses terminaux; triantenne = 9 galactoses terminaux), des expériences de compétition pour le récepteur à asialoglycoprotéines entre l'HSA gal et les différents composés ont été réalisées. […]

récepteur d'Ashwell = molecular target: T2, récepteur d'Ashwell (Rattus norvegicus, UniProt P02706+P08290); assay: Binding sites and Kd of triantenne on hepatocytes; conditions: number of sites
T2 construct: endogenous in cells
T2 sequence (P02706 1-284): T1 sequence (P02706 1-284)
T2 sequence (P08290 1-301): T1 sequence (P08290 1-301)

[2] = Blood disappearance and tissue distribution after i.v. administration (Example 7); assay type: in vivo, souris
Description: In vivo, on a étudié la disparition sanguine ainsi que la distribution tissulaire de la triantenne suite à son administration intra-veineuse à des souris.

[3] = parameters: species or system souris OF₁; conditions: in vivo, iv
Experimental: D'autres caractéristiques et avantages de la présente invention apparaîtront à la lumière des exemples qui vont suivre. • - La figure 1 : Expériences de compétition entre l'HSA gal marqué à l'iode-125 et différentes concentrations molaires en HSA gal non radioactives (●) ou en composés glycosylés (mono O bi □ triantenne ▲ ) non radioactifs. Les cellules mises en culture depuis 16 h. sont incubées à 4°C pendant 4 h. en présence de 1 ml de milieu contenant 50 ng d'¹²⁵I HSA gal et les différentes concentrations en produits non radioactifs. Après l'incubation, les cellules sont lavées et la radioactivité qui leur est associée, mesurée. Les résultats sont exprimés en pourcentage d'¹²⁵I HSA gal qui reste associé aux cellules en fonction du logarithme de la concentration molaire en compétiteur. • - La figure 2 : Expériences de compétiton entre l'HSA gal marqué à l'iode-125 et différentes concentrations molaires en galactoses d'HSA gal ou de composés glycosylés (mono O bi □ et triantenne ▲ )non radioactifs. Les cellules sont traitées comme décrit dans la figure 1 et les résultats sont exprimés en pourcentage d'[…] HSA gal qui reste associé aux cellules en fonction du logarithme de la concentration molaire en galactose du compétiteur. • - La figure 3 : Distribution tissulaire de la triantenne marquée au tritium. […]

hépatocytes = assay: Uptake (internalisation) by hepatocytes at 37°C; assay type: cell-based, rat; conditions: short periods (120 min)
Experimental: A 37°C, les récepteurs intériorisent efficacement la triantenne. Par comparaison avec la capture de la macromolécule, ASH gal, les hépatocytes incubés pendant de courtes périodes (120 min), intériorisent jusqu'à 4 fois plus de molécules de triantenne.
Ce fait pourrait s'expliquer par la formation préférentielle de complexes ligand-récepteur à vitesse de dissociation lente, dans le cas de la triantenne.

[4] = among amino-acid derivatives of primaquine
[5] = result in words, hepatocytes, 4°C

Compound: COc1cc(NC(C)CCCNC(=O)[C@@H](N)CCC(=O)O)c2ncccc2c1 (stereo partly drawn) [L-glutamyl-Pq]
- index thérapeutique (malaria murine; [4]): meilleur index thérapeutique

Compound: COc1cc(NC(C)CCCNC(=O)C(N)CCCCN)c2ncccc2c1 [L-lysyl-Pq]
- activité (malaria murine; [4]): meilleure activité
- toxicité (malaria murine; compared with primaquine): toxicité plus élevée que celle de la primaquine

Compound: Cbz-Asp bis(-6-amino Hex-Tris tri Gal) [Biantenne]
- affinité pour le récepteur ([1]; result in words): affinité importante
- compétition avec l'HSA gal iodiné pour le récepteur à asialoglycoprotéine [1, 5]: induit une diminution de la radioactivité associée aux cellules; also recorded: entre effectivement en compétition

Compound: Cbz-Asp-(6-amino Hex-Tris tri Gal) [Monoantenne]
- B=Ic50 (molaire en gal.) ([1]; molar concentration in galactoses of the competitor inhibiting 50 % of ¹²⁵I HSA gal binding, hepatocytes, 4°C, 4 h): non déterminable
- A=Ic 50 (molaire) ([1]; molar concentration of competitor inhibiting 50 % of ¹²⁵I HSA gal binding, hepatocytes, 4°C, 4 h): non déterminable
- affinité pour le récepteur ([1]; result in words): ne présentent d'affinité significative
- compétition avec l'HSA gal iodiné pour le récepteur à asialoglycoprotéine [1, 5]: n'entre pas en compétition; also recorded: se fixe aspécifiquement sur les cellules

Compound: Cbz-Asp-Asp-tri(-6-amino Hex-Tris tri Gal) [Triantenne]
- sites de haute affinité (récepteur d'Ashwell): 56370 sites
- sites de plus faible affinité (récepteur d'Ashwell): 490500 sites
- quantité accumulée par les hépatocytes ([2]; 5 min after injection): > 40 % de la quantité administrée
- quantité interagissant avec les autres organes ([2]; 5 min after injection): < 2%
- rapport des concentrations spécifiques du foie et des reins ([2]; after 10 min): 10
- molécules captées par le foie par rapport à l'ASH gal ([2]; comparable number of molecules, after 5 min): ~2 fois
- disparition sanguine ([2]; result in words): éliminée très rapidement de la circulation sanguine
- rapport des concentrations spécifiques du foie et des reins ([2]; start value): 1.5
- matériel radioactif associé au sang ou au plasma [3]: ≤ 10 % de la dose initiale administrée
- radioactivité associée aux autres organes (rate, coeur, poumons, muscles, estomac, duodenum, colon, rectum) [3]: < 5%
- affinité par rapport à celle de la biantenne ([1]; ratio triantenne / biantenne): ~100 fois and 60 fois
- affinité exprimée en concentration molaire en galactoses, par rapport à l'HSA gal ([1]; result in words): du même ordre de grandeur
- affinité pour le récepteur ([1]; result in words): la plus haute affinité pour le récepteur; also recorded: affinité importante
- compétition avec l'HSA gal iodiné pour le récepteur à asialoglycoprotéine [1, 5]: induit une diminution de la radioactivité associée aux cellules
- molécules intériorisées par rapport à l'ASH gal (hépatocytes): ≤ 4 fois
